According to ChEMBL document CHEMBL1133343, “Synthesis and antifungal activity of a ferrocene-fluconazole analogue” (2000):

Key:
Type in all cases: functional
Candida parapsilosis = test: Compound was tested for antifungal activity against growth of two strains Candida parapsilosis; conditions: Lodderomyces parapsilosis
Candida albicans [1] = test: Compound was tested for antifungal activity against growth of two strains Candida glabrata
Pichia kudriavzevii = test: Compound was tested for antifungal activity against growth of three strains Candida krusei
Candida albicans [2] = test: Compound was tested for antifungal activity against growth of three strains of Candida albicans

Which MIC80 (Candida parapsilosis) does the source give for `OC(Cn1cncn1)(Cn1cncn1)c1ccc(F)cc1F` [FLUCONAZOLE] here?
The MIC80 was under 12 µg/mL.

And the MIC80 (Candida albicans [1])?
The MIC80 was over 48 µg/mL.

And the MIC80 (Pichia kudriavzevii)?
Its MIC80 is over 48 µg/mL.

And the MIC80 (Candida albicans [2])?
Its MIC80 is under 1.5 µg/mL.
